{"source": "patent US20230265104A1", "about": "“NOVEL HETEROCYCLIC COMPOUNDS” (PRISM BIOLAB CO., LTD., priority 2020, published 2023)", "system": "PANC-1 (human pancreatic cancer-derived cell line)", "assay": "MTS assay on Panc-1 (human pancreas carcinoma cell line)", "type": "cell-based", "conditions": "144 h; for inhibition at 10 µM: PANC-1, MTS, 6 days, read-out: Growth inhibition (%) 10 μM; for IC50: PANC-1, MTS method, cell survival 6 days after exposure, 4-parameter logistic fit", "protocol": "Experimental Example: MTS Assay on Panc-1 (Human Pancreas Carcinoma Cell Line) cell line name: PANC-1 derived from: human pancreas glandular cancer purchased from: ATCC product code: CRL-1469 proliferation medium: D-MEM+10% FBS culture environment: 37° C., 5% CO2 seeding density: 5.0×10^5 cells/25 cm^2 solvent control substance: DMSO (HYBRI-MAX®, Sigma-Aldrich Corp.) test substance: Example compound (ID-1-ID-13) A DMSO solution of the test substance was prepared by serially diluting (common ratio 2) each test substance with DMSO.\nA solvent control substance sample and a test substance sample were exposed to a human pancreatic cancer-derived cell line (PANC-1), and the survival rate of the cell 6 days later was measured by the MTS method. The measurement was performed 3 times and the average thereof was adopted. The survival rate of the cell in each test substance sample was calculated by the following formula 1 with the value at exposure of the solvent control substance sample as 100% survival rate. […]\nsurvival rate (%)=100×absorbance of each test substance sample/absorbance of solvent control substance sample formula 1 Normalized values calculated by the following formula 2 from the absorbances of each sample at 492 nm and 630 nm and the absorbances of the blank were used as the absorbances in the above-mentioned formula 1. […]\nnormalized value (ABS492 nm-630 nm)=(ABSsa 492 nm-ABSsa 630 nm)−(ABSbl 492 nm-ABSbl 630 nm) ABSsa 492: absorbance of each sample at wavelength 492 nm ABSsa 630: absorbance of each sample at wavelength 630 nm ABSbl 492: absorbance of blank corresponding to each sample at wavelength 492 nm ABSbl 630: absorbance of blank corresponding to each sample at wavelength 630 nm formula 2 […]\nThe analysis was performed by using nplr package on R (The R Foundation for Statistical Computing) and estimating the logistic regression curve (4-parameter)."}
{"smiles": "CC(C)C[C@H]1ON(C(=O)/C=C/[C@@H]2CCCN2C)[C@H]2CN(CCC(N)=O)C(=O)[C@H](CC(C)C)N2C1=O", "note": "[ID-42, 3-((3R,6S,9aS)-3,6-diisobutyl-1-((E)-3-((S)-1-methylpyrrolidin-2-yl)acryloyl)-4,7-dioxohexahydropyrazino[2,1-c][1,2,4]oxadiazin-8(1H)-yl)propanamide]", "values": [{"measurement": "inhibition at 10 µM", "value": 65.3, "unit": "%"}]}
{"smiles": "CC(C)C[C@H]1ON(C(=O)/C=C/[C@H]2CCCN2C)[C@H]2CN(CCC(N)=O)C(=O)[C@H](CC(C)C)N2C1=O", "note": "[ID-43, 3-((3R,6S,9aS)-3,6-diisobutyl-1-((E)-3-((R)-1-methylpyrrolidin-2-yl)acryloyl)-4,7-dioxohexahydropyrazino[2,1-c][1,2,4]oxadiazin-8 (1H)-yl)propanamide]", "values": [{"measurement": "IC50", "value": 9400, "unit": "nM"}, {"measurement": "inhibition at 10 µM", "value": 78.5, "unit": "%"}]}
{"smiles": "CC(C)C[C@H]1ON(C(=O)/C=C/c2ccnn2C)[C@H]2CN(C3CCN(C)CC3)C(=O)[C@H](CC(C)C)N2C1=O", "note": "[ID-44, (3R,6S,9aS)-3,6-diisobutyl-1-((E)-3-(1-methyl-1H-pyrazol-5-yl)acryloyl)-8-(1-methylpiperidin-4-yl)tetrahydropyrazino[2,1-c][1,2,4]oxadiazine-4,7(3H,6H)-dione]", "values": [{"measurement": "inhibition at 10 µM", "value": 94.7, "unit": "%"}]}
{"smiles": "CC(=O)N1CCC(N2C[C@@H]3N(C(=O)/C=C/c4nc5ccccc5s4)O[C@H](CC(C)C)C(=O)N3[C@@H](CC(C)C)C2=O)CC1", "note": "[ID-45, (3R,6S,9aS)-8-(1-acetylpiperidin-4-yl)-1-((E)-3-(benzo[d]thiazol-2-yl)acryloyl)-3,6-diisobutyltetrahydropyrazino[2,1-c][1,2,4]oxadiazine-4,7(3H,6H)-dione]", "values": [{"measurement": "IC50", "value": 810, "unit": "nM"}, {"measurement": "inhibition at 10 µM", "value": 101, "unit": "%"}]}
{"smiles": "CC(C)C[C@H]1ON(C(=O)/C=C/c2nc3ccccc3o2)[C@H]2CN(C3CCN(C)CC3)C(=O)[C@H](CC(C)C)N2C1=O", "note": "[ID-46, (3R, 6S, 9aS)-1-((E)-3-(benzo[d]oxazol-2-yl)acryloyl)-3,6-diisobutyl-8-(1-methylpiperidin-4-yl)tetrahydropyrazino[2,1-c][1,2,4]oxadiazine-4,7(3H,6H)-dione]", "values": [{"measurement": "IC50", "value": 1400, "unit": "nM"}, {"measurement": "inhibition at 10 µM", "value": 99.1, "unit": "%"}]}
{"smiles": "CC(C)C[C@H]1ON(C(=O)/C(Cl)=C/c2ccccn2)[C@H]2CN(C3CCN(C)CC3)C(=O)[C@H](CC(C)C)N2C1=O", "note": "[ID-47, (3R,6S,9aS)-1-((Z)-2-chloro-3-(pyridin-2-yl)acryloyl)-3,6-diisobutyl-8-(1-methylpiperidin-4-yl)tetrahydropyrazino[2,1-c][1,2,4]oxadiazine-4,7(3H,6H)-dione]", "values": [{"measurement": "IC50", "value": 10000, "unit": "nM"}, {"measurement": "inhibition at 10 µM", "value": 66.6, "unit": "%"}]}
{"smiles": "CC(C)C[C@H]1ON(C(=O)/C=C/c2cc(C#N)ccn2)[C@H]2CN(C3CCN(C)CC3)C(=O)[C@H](CC(C)C)N2C1=O", "note": "[ID-48, 2-((E)-3-((3R,6S,9aS)-3,6-diisobutyl-8-(1-methylpiperidin-4-yl)-4,7-dioxohexahydropyrazino[2,1-c][1,2,4]oxadiazin-1(6H)-yl)-3-oxoprop-1-en-1-yl)isonicotinonitrile]", "values": [{"measurement": "IC50", "value": 580, "unit": "nM"}, {"measurement": "inhibition at 10 µM", "value": 100, "unit": "%"}]}
{"smiles": "CC(C)C[C@H]1ON(C(=O)/C=C/c2cc3n(n2)CCOC3)[C@H]2CN(C3CCN(C)CC3)C(=O)[C@H](CC(C)C)N2C1=O", "note": "[ID-49, (3R,6S,9aS)-1-((E)-3-(6,7-dihydro-4H-pyrazolo[5,1-c][1,4]oxazin-2-yl)acryloyl)-3,6-diisobutyl-8-(1-methylpiperidin-4-yl)tetrahydropyrazino[2,1-c][1,2,4]oxadiazine-4,7 (3H, 6H)-dione]", "values": [{"measurement": "inhibition at 10 µM", "value": 74.9, "unit": "%"}]}
{"smiles": "CC(C)C[C@H]1ON(C(=O)/C=C/c2nc3ccccc3s2)[C@H]2CN(C3CCN(C(=O)c4ncc(F)cn4)CC3)C(=O)[C@H](CC(C)C)N2C1=O", "note": "[ID-50, (3R,6S,9aS)-1-((E)-3-(benzo[d]thiazol-2-yl)acryloyl)-8-(1-(5-fluoropyrimidine-2-carbonyl)piperidin-4-yl)-3,6-diisobutyltetrahydropyrazino[2,1-c][1,2,4]oxadiazine-4,7(3H,6H)-dione]", "values": [{"measurement": "IC50", "value": 590, "unit": "nM"}, {"measurement": "inhibition at 10 µM", "value": 101, "unit": "%"}]}
